# A melting point compilation (Tetko et al.; mined from patent text by program, amines drawn as free bases though some values may be those of a salt)
row,Compound,melting point [°C]
1,CS(=O)(=O)NC1CCC(=O)N2CCCC(C(=O)NC(CC(=O)O)C(=O)COc3cccnc3)N2C1=O (stereo unspecified),120 to 125
2,CNc1ccc([N+](=O)[O-])cc1[N+](=O)[O-],177 to 178
3,CCCCCCSc1cc(SCCCCCC)c2ccc3c(SCCCCCC)cc(SCCCCCC)c4ccc1c2c43,92
4,COc1ccccc1N1CCN(C(=S)Nc2nc3ccccc3nc2OC)CC1,160 to 162
5,NC(=O)c1c(F)cccc1C(F)(F)F,143 to 144
6,CCCc1ccc(NC(=O)c2cccnc2NCc2ccc(OC)nc2)cc1C(F)(F)F,51 to 61
7,CCOc1ccc2c(c1)n(C1CCCCC1)c(=O)n2S(=O)(=O)c1ccc(NC(=O)N(CC)CC)cc1OC,165
8,CN1C(C(=O)NC2CCC(O)CC2)C(c2cccc(Cl)c2F)C2(C(=O)Nc3cc(Cl)ccc32)C1CC(C)(C)C (stereo unspecified),188
9,O=C(O)c1cn(-c2ccc(F)cc2F)c2c(F)c(N3Cc4ccccc4C3)c(F)cc2c1=O,264 to 268
10,CCOC(=O)Cn1cnc2c(Cl)nc(NC(=O)c3ccc(C4CCCCC4)cc3)nc21,90 to 107
11,Cc1ccc([N+](=O)[O-])cc1C=Cc1ccccc1,65.5
12,Nc1ccccc1Sc1ncc[nH]1,135 to 137
13,O=C(c1ccc(F)cc1)C1CCN(CCn2c(=O)[nH]c3ncccc3c2=O)CC1,60
14,CCCCc1nc2ncncc2n1Cc1ccc2oc(-c3ccccc3-c3nnn[nH]3)c(Br)c2c1,211 to 213
15,CSc1nc(N)c(C=O)s1,159 to 162
16,CC(=O)c1c(C)c2c(c(C)c1O)OC(C)(C)C(C)C2 (stereo unspecified),87 to 90
17,CCOC(=O)C(C)Oc1ccc(N(C)c2cc3ccc(Cl)cc3c(Cl)n2)cc1 (stereo unspecified),86
18,Cc1cc(C(=O)Nc2ccccc2)c(C)o1,92 to 93
19,COc1c(C(C)(C)C)cc(C=C2CCON(C)C2=O)cc1C(C)(C)C,119 to 121
20,COC(=O)C1CC(C#N)(c2ccccc2)CCC1=O (stereo unspecified),75 to 80
21,Cc1cc(-c2c3ccccc3c(C)c3sc4ccccc4c23)cc(C)c1O,147 to 149
22,CC(C)(CO)NC(=O)c1nn(-c2ccc(Cl)cc2F)c2c1C1CCC2C1 (stereo unspecified),158 to 160
23,COC(=O)CNc1cccc(C(N)=O)c1,146 to 147
24,Fc1ccc(-c2cccs2)cc1,51 to 52
25,CNC(=O)c1cn(C)nc1[N+](=O)[O-],163 to 165
26,CC(C)N(CCN1C(=O)/C(=N/NC(N)=O)c2ccccc21)C(C)C,189 to 191

row,Compound,melting point [°C]
1,C[C@@H](Nc1ncnc2[nH]c(-c3ccc(C(=O)O)cc3)cc12)c1ccccc1,> 350
2,CN1CCN(Cc2ccc(NC(=O)N3CCCc4cc(Oc5ccnc(N)n5)ccc43)cc2C(F)(F)F)CC1,120 to 123
3,Cc1cc(Cl)nn2cnnc12,134 to 136
4,COc1ccc2c(c1)-c1nc(-c3ccccc3C)c(N)n1CC2,160
5,COc1cc(-c2nn(C)c(C(F)(F)F)c2Br)c(F)cc1Cl,85 to 86
6,CCOC(=O)c1cnc2ccc(F)cc2c1O,> 260
7,COC(=O)CCc1cc2cc(F)c(Cl)cc2[nH]1,138 to 139
8,NS(=O)(=O)c1ccc(N2CN(C3CCCCC3)CC2=O)c(Cl)c1,188 to 190
9,CN1CCN(c2cnc3ccccc3n2)CC1,109 to 111
10,Cc1cccc(C)c1N1C(=N)N(c2c(C)cccc2C)C(C)C1C (stereo unspecified),155 to 157
11,CC1(C)Oc2ccncc2[C@@H](Oc2ccccn2)[C@@H]1O (relative stereo),207
12,N=C(N)c1ccc(-c2ccc(-c3ccc(C(=N)N)cn3)o2)cc1,232
13,CN1CS(=O)c2cccc(Cl)c21 (stereo unspecified),130 to 132
14,COC(=O)Cc1ccc(OCC(C)NCC(O)c2ccc(Cl)cc2)cc1 (stereo unspecified),78 to 79
15,CC(=O)SCCC(=O)N1c2ccc(Cl)cc2CCC1C(=O)O (stereo unspecified),134 to 136
16,Cc1c(/C=N/OCCCOc2ccc(CC(=O)O)cc2)c2ccccc2n1C,106 to 108
17,N#CCC(O)(c1ccc(Br)cc1)c1cccnc1 (stereo unspecified),158 to 161
18,COc1ccc(-c2ccc(C=CC(=O)O)s2)cc1C(C)(C)C,218 to 219
19,Cc1ccc2c(c1)N(CC(=O)c1cccs1)C(=O)C(NC(=O)Nc1cccc(C(=O)O)c1)CN2C(=O)C(C)(C)C (stereo unspecified),198 to 206
20,CC(C)COC(=O)Nc1ccc(C2=CCS(=O)CC2)c(F)c1 (stereo unspecified),212 to 214
21,CCOC(=O)c1cc2n(c1)CNc1ccc(Br)cc1-2,169 to 171
22,CCOC(=O)c1cnc2nn(C)cc2c1OCCC(C)C,100 to 102
23,COC(=O)CCCc1cc2nc(Cl)ccc2n1S(=O)(=O)c1cccc2cccnc12,64
24,CCCCCCc1cc2c(cc1C(=O)Oc1ccc(C(=O)OCc3ccccc3)cn1)C(C)(C)CCC2(C)C,94 to 95
25,COc1ccc2c(cccc2[C@H]2CO[C@H](CCCNC(=O)OCc3nccn3C(c3ccccc3)(c3ccccc3)c3ccccc3)OC2)c1,130 to 132
26,Cc1cc2cnnc(OCc3ccc(F)cc3)c2n1Cc1ccccc1,127 to 132

row,Compound,melting point [°C]
1,CCOC(=O)CN1Cc2c(C)cccc2NC1=O,184 to 185
2,c1ccc(C2SC3(CCNCC3)c3ccccc32)cc1 (stereo unspecified),142 to 144
3,CCNC(=O)Nc1ccc(-c2ccc3nnn(Cc4ccc5ncccc5c4)c3n2)cc1,193 to 196
4,CC1(C)CC(N)c2cc(OCc3ccccc3)ccc2O1 (stereo unspecified),86 to 88
5,CCn1c(N)c(C(=O)NC)c(=O)c2ccc(-c3ccc(NS(=O)(=O)c4cccc(Cl)c4Cl)cc3)nc21,210
6,CC(CCl)NC(=O)c1c(Cl)cccc1[Si](C)(C)C (stereo unspecified),150 to 151
7,CC(C)(O)c1cccc(OCc2nc3cc(F)ccc3s2)c1,124 to 125
8,COc1cccc(CC(=O)O)c1OCCCc1cc(OC(C)C)nn1Cc1ccc2ccccc2n1,129 to 130
9,CC(C)(C)OC(=O)Cn1c(-c2ccccn2)nc2cccnc21,124 to 126
10,CC(=O)N(CC1CC(c2ccc(Cl)cc2)=NO1)c1nnc(C)s1 (stereo unspecified),195 to 197
11,CCOC(=O)c1cn(C2CC2)c2c(F)c(N3CC[C@H](NC(=O)OC(C)(C)C)C3)c(F)cc2c1=O,148 to 151
12,CC(=O)SCC(CC1CN(Cc2ccccc2)CCO1)C(=O)Nc1cccc(C(=O)O)c1 (stereo unspecified),103 to 105
13,CC(=O)OC1CCC2C3CCC4=CC(=O)C(I)C(C)C4(C)C3CCC12C (stereo unspecified),102
14,CC1(C)CCC(C)(C)c2c(O)ccc(O)c21,114
15,COc1ccccc1P(CCCP(c1ccccc1OC)c1ccccc1OC)c1ccccc1OC,149 to 150
16,CC(C)(c1ccccc1)N1CCC(=O)C(c2ccccc2)C1=O (stereo unspecified),129 to 132
17,CCn1cc(C#Cc2cccc(OC)c2)cc1C(=O)O,129
18,S=C(NCCCN1CCN(Cc2ccc(Cl)cc2)CC1)Nc1ccccc1,155 to 156
19,COC(=O)c1ccc(OCCC[Si](C)(C)C)cc1O,32 to 33
20,C=C(C)C(=O)N1CC(C)OC1(C)C (stereo unspecified),24
21,Cc1cn(-c2cc(NC(=O)c3cccc4cc(Oc5ccnc(N)c5)ccc34)cc(C(F)(F)F)c2)cn1,236 to 239
22,CC1(C)OC2OC(CN3C(=O)C4(COc5cc6c(cc54)OCCO6)c4ccccc43)C3OC(C)(C)OC3C2O1 (stereo unspecified),112 to 118
23,Cc1noc(C)c1Cn1cc(N2C(=O)CN(CCc3ccccc3)C2=O)cn1,95 to 96
24,CSC(=S)NN=Cc1ccccn1,171 to 173
25,O=C(O)C(S)c1ccc(Cl)cc1 (stereo unspecified),123 to 125
26,CS(=O)(=O)N1CCCn2c(nc3c(N)nc4cccnc4c32)C1,> 250

row,Compound,melting point [°C]
1,O=C1CCCc2nc(C#Cc3cccnc3)ccc21,120 to 122
2,CCc1ccccc1Cn1cc(-c2cn(C3CC(O)C(CO)O3)c(=O)[nH]c2=O)nn1 (stereo unspecified),169 to 172
3,COc1ccc2[nH]c(SCC3(N4CCCC4)NC=NC(N4CCCC4)=C3C)nc2c1 (stereo unspecified),104 to 106
4,CCCCNC(=O)C(=O)[C@H](CC(C)C)NC(=O)[C@@H](NS(=O)(=O)c1ccc(F)cc1)C(C)C,108 to 110
5,COC(=O)CCNC(=O)c1cc(Cl)c([N+](=O)[O-])cc1[N+](=O)[O-],139 to 141
6,COc1ccc(C)cc1NC(=O)Nc1ccc(N2CCN(C(=O)Nc3ncccc3C)CC2)cc1,209 to 211
7,Nc1c(Cl)cc(C(=O)C=Cc2ccncc2)c2c1OCCO2,209 to 211
8,O=C1NC(=O)C(Cc2ccc(OCCN3C(=O)SC(c4ccccc4)C3=O)cc2)S1 (stereo unspecified),67
9,CNC(=O)C(Cc1ccc(OC)cc1)NC(=O)C(C)(CC(C)C)c1ccccc1S (stereo unspecified),165 to 168
10,CC(C)NCC(O)COc1ccc2c(=O)cc(-c3ccc(O)c(O)c3)oc2c1 (stereo unspecified),187
11,CN1c2ccccc2-c2nccn2-c2ccccc21,194 to 197
12,Cc1cc(C#N)cc(C)c1Oc1cc(Cl)nc(Cl)n1,208 to 210
13,CC(C)(C)N=NC(C)(C)C#N,17
14,COc1cc(-c2cccs2)cc(OC)c1C=O,168 to 170
15,CC1(C)C(=O)N(c2ccc([N+](=O)[O-])c(C(F)(F)F)c2)C(=O)N1CCCCN1C(=O)N(c2ccc([N+](=O)[O-])c(C(F)(F)F)c2)C(=O)C1(C)C,211 to 212
16,COC(=O)c1ccc(-c2cccc(N)c2)cc1,145 to 148
17,O=S1(=O)c2cccc3cccc(c23)N1CCCN1CCN(c2ccccn2)CC1,101
18,COCC(=O)Nc1nc2ccc(F)cc2s1,139 to 140
19,CC(=O)OC1(N=NC2(OC(C)=O)CCCCC2)CCCCC1,91 to 94
20,CC(=O)NCc1ncc(-n2nc(C)cc2C)nc1Nc1ccc(Cl)cc1,228 to 230
21,CN(C)Cc1nnc2n1-c1ccc([N+](=O)[O-])cc1C(c1ccccc1)=[N+]([O-])C2,228 to 230
22,CN(C)CCOc1ccc(C#N)cn1,58
23,COc1cc(Cc2cnc(N)nc2NC(C)=O)cc(OC)c1C(C)(C)O,214 to 216
